Publication PMC7566913, “Dual Gene Delivery Reagents From Antiproliferative Alkylphospholipids for Combined Antitumor Therapy” (Frontiers in Chemistry, 2020)
Read-outs that look alike come from different tables or passages of the source.

Experiments:
[1] = design: method as in Gaillard et al., 2019; settings: pyrene fluorescence; ref Gaillard et al., 2019; cited from earlier work
16HBE cells = system: 16HBE cells; design: method as in Gaillard et al., 2019; settings: 24 h at 37°C, MTT assay, ref Gaillard et al., 2019; cited from earlier work
H292 cells = system: H292 cells; design: method as in Gaillard et al., 2019; settings: H292, 24 h at 37°C, MTT assay; ref Gaillard et al., 2019; cited from earlier work
[2] = design: method as in Gaillard et al., 2019; settings: ref Gaillard et al., 2019, cited from earlier work
A549 cells [3] = assay: Antiproliferative effect of pUNO1-hTRAIL vs pCMV-Gluc lipoplexes, MTT, A549; format: cell-based, human; settings: N/P 3, 1 eq. DOPE, pDNA 0.3 and 0.4 μg/well
Procedure: Cells were treated with lipoplexes prepared from pro-APLs ME12, PE12, and EE12, with increasing dose of pDNA (0.1–0.4 μg per well). The gold standard gene delivery reagent Lipofectamine® 2000 was assayed in parallel for comparison purpose. In order to distinguish the intrinsic cytotoxic effect of the in situ generated APLs from that resulting from TRAIL expression, pCMV-Gluc was assayed in parallel to pUNO1-hTRAIL. Using pCMV-Gluc, the observed cytotoxicity was assumed to result only from the APL antiproliferative activity, whereas results obtained with pUNO1-hTRAIL are a combination of TRAIL activity and APL antiproliferative effect. […] Though the temptation is to take it as an indicator that functional TRAIL was produced, the difference found was not always statistically significant. The activity profile of the three pro-APLs varied according to the cell line. […]
Figure 8 Antiproliferative effect of lipoplexes prepared from ME12 (A), PE12 (B), EE12 (C), and the two DNA plasmids pCMV-Gluc (light bars) and pUNO1-hTRAIL (dark bars), on the three cell lines. […] Lipofectamine®-based lipoplexes (0.1 μg plasmid/well) were prepared according to the optimized experimental conditions determined following the supplier's instructions. Cell viability was measured by the MTT assay. Basal mitochondrial activity measured in untreated cells is set at 100%. […]

sheep RBC = settings: sheep RBC, 37°C, ref Gaillard et al., 2019, cited from earlier work
[4] = design: method as in Gaillard et al., 2019; settings: lipoplexes with pCMV-Gluc, N/P 3, 1 molar equivalent of DOPE; ref Gaillard et al., 2019; cited from earlier work
A549 cells [5] = system: A549 cells; design: method as in Gaillard et al., 2019; settings: A549, 24 h at 37°C, MTT assay; ref Gaillard et al., 2019; cited from earlier work

## CCCCCCCC/C=C\CCCCCCCCCCCCOP(=O)(OCCC[N+](C)(C)C)OCOC(=O)CCCCCCCCCCC (stereo not shown) [EE12]
[1]
  CMC (APLs) / CAC (pro-APLs): 0.6 ± 0.2 µM
16HBE cells
  IC50: 144 ± 66 µM
H292 cells
  IC50: 125 ± 26 µM
[2]; pH 4.5
  H120 (hydrolysis rate after a 120-h incubation period): 2%
[2]; pH 7.4
  H120 (hydrolysis rate after a 120-h incubation period): 17%
A549 cells [3]
  TRAIL-induced cell death: 15-17%
Sheep RBC; 1 h
  HA200 (hemolytic activity at 200 μM): < 1%
Sheep RBC; 24 h
  HA200 (hemolytic activity at 200 μM): 18.6 ± 1.5%
[4]
  Particle size of lipoplexes: 141 ± 5 nm
A549 cells [5]
  IC50: 151 ± 42 µM
